# Data reported in ChEMBL document CHEMBL1139588, “Ketoheterocycle-based inhibitors of cathepsin K: a novel entry into the synthesis of peptidic ketoheterocycles” (Bioorg Med Chem Lett, 2005).
# What was measured:
# [1] = target: T1, Cathepsin K (Homo sapiens) (UniProt P43235); experiment: Percentage inhibition of 10 uM Cbz-Phe-Arg-AMC binding to human cathepsin K at 12.6 uM by fluorescence assay
# T1 sequence (whole entry): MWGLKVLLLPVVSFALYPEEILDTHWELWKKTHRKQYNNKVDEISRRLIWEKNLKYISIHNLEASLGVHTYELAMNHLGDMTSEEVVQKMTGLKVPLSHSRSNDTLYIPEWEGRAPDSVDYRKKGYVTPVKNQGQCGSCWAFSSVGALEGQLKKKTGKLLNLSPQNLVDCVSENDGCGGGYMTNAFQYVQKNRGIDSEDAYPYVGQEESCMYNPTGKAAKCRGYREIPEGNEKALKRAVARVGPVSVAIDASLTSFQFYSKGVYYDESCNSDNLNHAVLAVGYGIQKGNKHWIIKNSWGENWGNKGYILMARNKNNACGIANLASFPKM
# Cathepsin K = target: T2, Cathepsin K (Homo sapiens, UniProt P43235); experiment: Inhibition of 10 uM Cbz-Phe-Arg-AMC binding to human cathepsin K by fluorescence assay
# T2 sequence (P43235 whole entry): T1 sequence (whole entry)
# [2] = target: Cathepsin (L and K) (Homo sapiens) (UniProt P43235+P07711); experiment: Ratio of inhibitory potency against cathepsins L and K using 5 uM Cbz-Phe-Arg-AMC in fluorescence assay; type: protein assay
# Homo sapiens [3] = organism: Homo sapiens; experiment: Ratio of inhibitory potency against cathepsins K and V using 2 uM Cbz-Phe-Arg-AMC in fluorescence assay
# Homo sapiens [4] = organism: Homo sapiens; experiment: Ratio of inhibitory potency against cathepsins K and S using 10 uM Cbz-Phe-Arg-AM in fluorescence assay
# Homo sapiens [5] = organism: Homo sapiens; experiment: Ratio of inhibitory potency against cathepsins K and B using 10 uM Cbz-Phe-Arg-AMC in fluorescence assay
# Chain of Cathepsin (L and K) (Homo sapiens) (P07711 whole entry, looked up, one chain of several): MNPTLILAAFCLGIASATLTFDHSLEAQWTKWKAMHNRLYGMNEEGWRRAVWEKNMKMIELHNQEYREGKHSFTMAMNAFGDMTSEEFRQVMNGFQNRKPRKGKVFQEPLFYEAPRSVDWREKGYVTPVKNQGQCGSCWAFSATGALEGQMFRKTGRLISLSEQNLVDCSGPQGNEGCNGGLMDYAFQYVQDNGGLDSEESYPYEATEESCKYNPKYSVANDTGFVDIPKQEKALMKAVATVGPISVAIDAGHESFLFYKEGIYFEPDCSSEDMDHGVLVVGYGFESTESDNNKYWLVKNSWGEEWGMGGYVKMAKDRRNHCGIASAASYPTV
inhibition [1] [%],IC50 (Cathepsin K) [µM],Compound,further results
20,–,CCOC(=O)c1csc(C(=O)CNC(=O)[C@H](CC(C)C)NC(=O)OCc2ccccc2)n1,–
–,3.1,CCCC[C@H](NC(=O)O[C@@H](C)CC1CCCCC1)C(=O)c1nccs1,–
–,13,CCCC[C@H](NC(=O)[C@H](CC(C)C)NC(=O)OCc1ccccc1)C(=O)c1nc(C(=O)OCC)cs1,–
–,1.9,CCCC[C@H](NC(=O)OC(C(C)C)C(C)C)C(=O)c1cccs1,–
–,13,CCCC[C@H](NC(=O)O[C@@H](C)CC1CCCCC1)C(=O)c1nc(C(F)(F)F)cs1,–
10,–,CCCC[C@H](NC(=O)O[C@@H](C)CC1CCCCC1)C(=O)c1nc(C)c(C(=O)OCC)s1,–
2,–,CCCC[C@H](NC(=O)OC(C(C)C)C(C)C)C(=O)c1ccccc1,–
–,> 13,CCCOc1ccccc1C(=O)NCC(=O)c1nc(C(=O)OCC)cs1,–
31,–,CCCC[C@H](NC(=O)OC(Cc1ccccc1)CC(C)C)C(=O)c1nc(C(=O)OCC)cs1 (stereo partly specified),–
–,4,CCCC[C@H](NC(=O)O[C@@H](C)CC1CCCCC1)C(=O)c1nnc(-c2ccccc2)o1,–
0,–,CCOC(=O)c1csc(C(=O)CNC(=O)O[C@@H](C)CC2CCCCC2)n1,–
–,0.23,CCCC[C@H](NC(=O)O[C@@H](C)CC1CCCCC1)C(=O)c1nc(C(=O)OCC)cs1,Ratio [2]: > 40; Ratio (Homo sapiens [3]): > 40; Ratio (Homo sapiens [4]): > 40; Ratio (Homo sapiens [5]): > 40
–,7.1,CCCC[C@H](NC(=O)O[C@@H](C)CC1CCCCC1)C(=O)c1nc(-c2ccccc2)cs1,–
–,8.1,CCCC[C@H](NC(=O)O[C@@H](C)CC1CCCCC1)C(=O)c1noc(C)n1,–
28,–,CCCC[C@H](NC(=O)OC(Cc1ccccc1)C(C)C)C(=O)c1nc(C(=O)OCC)cs1 (stereo partly specified),–
–,> 13,CCCC[C@H](NC(=O)OC(CC)Cc1ccccc1)C(=O)c1nc(C(=O)OCC)cs1 (stereo partly specified),–
0,–,CCOC(=O)c1csc(C(=O)CNC(=O)OC(CC)Cc2ccccc2)n1 (stereo unspecified),–
